Assay results reported in ChEMBL document CHEMBL1141382, “Studies leading to potent, dual inhibitors of Bcl-2 and Bcl-xL” (J Med Chem, 2007).

Experiments:
Bcl-2-like protein 1 [1] = target: T1, Bcl-2-like protein 1 (Homo sapiens, UniProt Q07817); experiment: Displacement of Bad-derived peptide from Bcl-xL by fluorescence polarization assay
Bcl-2-like protein 1 [2] = target: T1, Bcl-2-like protein 1; experiment: Displacement of Bad-derived peptide from Bcl-xL by FPA in presence of 10% human serum
[3] = target: Apoptosis regulator Bcl-2 (Homo sapiens, UniProt P10415); experiment: Displacement of Bax-derived peptide from Bcl2 by fluorescence polarization assay
Apoptosis regulator Bcl-2, sequence (P10415 whole entry): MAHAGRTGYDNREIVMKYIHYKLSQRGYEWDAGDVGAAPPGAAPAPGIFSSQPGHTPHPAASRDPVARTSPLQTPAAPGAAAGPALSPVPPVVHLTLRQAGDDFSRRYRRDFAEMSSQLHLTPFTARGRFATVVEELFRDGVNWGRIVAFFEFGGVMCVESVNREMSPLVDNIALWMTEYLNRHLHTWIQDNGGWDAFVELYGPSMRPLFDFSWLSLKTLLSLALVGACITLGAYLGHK

FL5.12 = experiment: Reversal of cytokine withdrawal protection in IL3 dependent Bcl-xL overexpressing mouse FL5.12 cells in presence of 3% FBS; type: functional

T1 sequence (Q07817 whole entry): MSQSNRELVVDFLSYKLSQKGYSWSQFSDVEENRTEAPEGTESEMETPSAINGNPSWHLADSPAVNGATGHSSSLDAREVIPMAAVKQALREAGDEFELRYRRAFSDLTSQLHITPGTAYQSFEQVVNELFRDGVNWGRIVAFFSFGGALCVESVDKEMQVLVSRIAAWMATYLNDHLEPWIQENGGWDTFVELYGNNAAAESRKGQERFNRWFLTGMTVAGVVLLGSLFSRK

Structure (SMILES) | Ki (Bcl-2-like protein 1 [1]) | IC50 (Bcl-2-like protein 1 [2]) | Ki [3] | EC50 (FL5.12)
CN(C)CC[C@H](CSc1ccccc1)Nc1ccc(S(=O)(=O)NC(=O)c2ccc(N3CCN(Cc4ccccc4S(C)(=O)=O)CC3)cc2)cc1[N+](=O)[O-] | 0.9 nM | 170 nM | 4.6 nM | –
CN(C)CC[C@H](CSc1ccccc1)Nc1ccc(S(=O)(=O)NC(=O)c2ccc(N3CCN(Cc4ccccc4N4CCOCC4)CC3)cc2)cc1[N+](=O)[O-] | < 0.5 nM | < 60 nM | < 1 nM | –
CN(C)CC[C@H](CSc1ccccc1)Nc1ccc(S(=O)(=O)NC(=O)c2ccc(N3CCN(Cc4ccccc4-c4cccnc4)CC3)cc2)cc1[N+](=O)[O-] | < 0.5 nM | 81 nM | 1 nM | –
CN(C)CC[C@H](CSc1ccccc1)Nc1ccc(S(=O)(=O)NC(=O)c2ccc(N3CCC(=Cc4ccccc4C#N)CC3)cc2)cc1[N+](=O)[O-] | < 0.5 nM | 520 nM | 13 nM | –
CN(C)CC[C@H](CSc1ccccc1)Nc1ccc(S(=O)(=O)NC(=O)c2ccc(N3CCN(Cc4ccccc4-c4ccc(C(F)(F)F)cc4)CC3)cc2)cc1[N+](=O)[O-] | < 0.5 nM | < 60 nM | < 1 nM | 120 nM
CN(C)CC[C@H](CSc1ccccc1)Nc1ccc(S(=O)(=O)NC(=O)c2ccc(N3CCC(=Cc4ccccc4F)CC3)cc2)cc1[N+](=O)[O-] | < 0.5 nM | 750 nM | 2.5 nM | –
CN(C)CC[C@H](CSc1ccccc1)Nc1ccc(S(=O)(=O)NC(=O)c2ccc(N3CCC(=Cc4ccccc4Cl)CC3)cc2)cc1[N+](=O)[O-] | < 0.5 nM | 700 nM | 0.7 nM | –
CN(C)CC[C@H](CSc1ccccc1)Nc1ccc(S(=O)(=O)NC(=O)c2ccc(N3CCC(=Cc4ccc(Cl)cc4)CC3)cc2)cc1[N+](=O)[O-] | < 0.5 nM | 510 nM | 2.1 nM | –
CN(C)CC[C@H](CSc1ccccc1)Nc1ccc(S(=O)(=O)NC(=O)c2ccc(N3CCN(Cc4ccccc4-c4ccc(-c5ccccc5)cc4)CC3)cc2)cc1[N+](=O)[O-] | 1 nM | 100 nM | < 1 nM | 120 nM
Cc1ccc(S(=O)(=O)N2CCN(c3ccc(C(=O)NS(=O)(=O)c4ccc(N[C@H](CCN(C)C)CSc5ccccc5)c([N+](=O)[O-])c4)cc3)CC2)cc1 | 4 nM | – | 6.1 nM | –
CN(C)CC[C@H](CSc1ccccc1)Nc1ccc(S(=O)(=O)NC(=O)c2ccc(N3CCN(Cc4ccccc4NC4CCCCC4)CC3)cc2)cc1[N+](=O)[O-] | 0.6 nM | 370 nM | 3.5 nM | –
CC1OC2(CCN(c3ccc(C(=O)NS(=O)(=O)c4ccc(N[C@H](CCN(C)C)CSc5ccccc5)c([N+](=O)[O-])c4)cc3)CC2)N(Cc2ccccc2)C1=O (some centres not stated) | 3.7 nM | – | 9.6 nM | –
CN(C)CC[C@H](CSc1ccccc1)Nc1ccc(S(=O)(=O)NC(=O)c2ccc(N3CCN(Cc4ccccc4-c4ccccc4Cl)CC3)cc2)cc1[N+](=O)[O-] | < 0.5 nM | < 60 nM | < 1 nM | 2500 nM
CN(C)CC[C@H](CSc1ccccc1)Nc1ccc(S(=O)(=O)NC(=O)c2ccc(N3CCN(Cc4ccccc4-c4ccc(Cl)cc4)CC3)cc2)cc1[N+](=O)[O-] [ABT 737] | – | – | – | 220 nM
CN(C)CC[C@H](CSc1ccccc1)Nc1ccc(S(=O)(=O)NC(=O)c2ccc(N3CCC(=Cc4cccnc4)CC3)cc2)cc1[N+](=O)[O-] | 1.3 nM | 2800 nM | 68 nM | –
CC1(C)CCN(c2ccc(C(=O)NS(=O)(=O)c3ccc(NC(C)(C)CSc4ccccc4)c([N+](=O)[O-])c3)cc2)CC1 | 0.8 nM | 360 nM | – | –
CN(C)CC[C@H](CSc1ccccc1)Nc1ccc(S(=O)(=O)NC(=O)c2ccc(N3CCC(=Cc4ccccc4-c4ccccc4)CC3)cc2)cc1[N+](=O)[O-] | < 0.5 nM | 83 nM | < 1 nM | –
CSc1ccccc1CN1CCN(c2ccc(C(=O)NS(=O)(=O)c3ccc(N[C@H](CCN(C)C)CSc4ccccc4)c([N+](=O)[O-])c3)cc2)CC1 | < 0.5 nM | < 60 nM | < 1 nM | –
CN(C)CC[C@H](CSc1ccccc1)Nc1ccc(S(=O)(=O)NC(=O)c2ccc(N3CCN(C(=O)Nc4ccccc4)CC3)cc2)cc1[N+](=O)[O-] | 2.5 nM | – | 300 nM | –
CN(C)CC[C@H](CSc1ccccc1)Nc1ccc(S(=O)(=O)NC(=O)c2ccc(N3CCN(C(=O)c4ccccc4)CC3)cc2)cc1[N+](=O)[O-] | < 1 nM | – | 61.9 nM | –
CN(C)CC[C@H](CSc1ccccc1)Nc1ccc(S(=O)(=O)NC(=O)c2ccc(N3CCC(=Cc4ccccc4C(F)(F)F)CC3)cc2)cc1[N+](=O)[O-] | < 0.5 nM | 300 nM | 2 nM | –
CN(C)CC[C@H](CSc1ccccc1)Nc1ccc(S(=O)(=O)NC(=O)c2ccc(N3CCC(=Cc4ccc(C(F)(F)F)cc4)CC3)cc2)cc1[N+](=O)[O-] | 1.4 nM | 1300 nM | 9.4 nM | –
CN(C)CC[C@H](CSc1ccccc1)Nc1ccc(S(=O)(=O)NC(=O)c2ccc(N3CCN(Cc4ccccc4C4CCCCC4)CC3)cc2)cc1[N+](=O)[O-] | < 0.5 nM | 61 nM | < 1 nM | –
CN(C)CC[C@H](CSc1ccccc1)Nc1ccc(S(=O)(=O)NC(=O)c2ccc(N3CCN(Cc4ccccc4C(F)(F)F)CC3)cc2)cc1[N+](=O)[O-] | < 0.5 nM | 85 nM | < 1 nM | –
CN(C)CC[C@H](CSc1ccccc1)Nc1ccc(S(=O)(=O)NC(=O)c2ccc(N3CCC(=Cc4ccc(F)cc4)CC3)cc2)cc1[N+](=O)[O-] | < 0.5 nM | 520 nM | 3.4 nM | –
CN(C)CC[C@H](CSc1ccccc1)Nc1ccc(S(=O)(=O)NC(=O)c2ccc(N3CCC(=Cc4ccccn4)CC3)cc2)cc1[N+](=O)[O-] | 3.6 nM | 700 nM | 46 nM | –

Continued, values first:

Ki (Bcl-2-like protein 1 [1]) | IC50 (Bcl-2-like protein 1 [2]) | Ki [3] | EC50 (FL5.12) | Structure (SMILES)
< 0.5 nM | 170 nM | 1.8 nM | – | COC1(Cc2cccc(Cl)c2)CCN(c2ccc(C(=O)NS(=O)(=O)c3ccc(N[C@H](CCN(C)C)CSc4ccccc4)c([N+](=O)[O-])c3)cc2)CC1
0.8 nM | 300 nM | 6.6 nM | – | COC1(CC2CCCCC2)CCN(c2ccc(C(=O)NS(=O)(=O)c3ccc(N[C@H](CCN(C)C)CSc4ccccc4)c([N+](=O)[O-])c3)cc2)CC1
0.9 nM | 160 nM | < 1 nM | – | COC1(Cc2ccc(-c3ccccc3)cc2)CCN(c2ccc(C(=O)NS(=O)(=O)c3ccc(N[C@H](CCN(C)C)CSc4ccccc4)c([N+](=O)[O-])c3)cc2)CC1
< 0.5 nM | 71 nM | 1.4 nM | – | COC1(Cc2ccccc2C)CCN(c2ccc(C(=O)NS(=O)(=O)c3ccc(N[C@H](CCN(C)C)CSc4ccccc4)c([N+](=O)[O-])c3)cc2)CC1
< 0.5 nM | < 60 nM | < 1 nM | – | COC1(Cc2ccccc2-c2ccccc2)CCN(c2ccc(C(=O)NS(=O)(=O)c3ccc(N[C@H](CCN(C)C)CSc4ccccc4)c([N+](=O)[O-])c3)cc2)CC1
1.8 nM | 150 nM | 8.1 nM | – | COC1(Cc2ccccc2)CCN(c2ccc(C(=O)NS(=O)(=O)c3ccc(N[C@H](CCN(C)C)CSc4ccccc4)c([N+](=O)[O-])c3)cc2)CC1
< 0.5 nM | < 60 nM | 1.5 nM | – | COC1(Cc2ccccc2Br)CCN(c2ccc(C(=O)NS(=O)(=O)c3ccc(N[C@H](CCN(C)C)CSc4ccccc4)c([N+](=O)[O-])c3)cc2)CC1
1.7 nM | – | 6.5 nM | – | CN(C)CC[C@H](CSc1ccccc1)Nc1ccc(S(=O)(=O)NC(=O)c2ccc(N3CCC4(CC3)CC(Cc3ccccc3)=NO4)cc2)cc1[N+](=O)[O-]
3 nM | 140 nM | 4.5 nM | – | Cc1ccccc1CN1CCN(c2ccc(C(=O)NS(=O)(=O)c3ccc(N[C@H](CCN(C)C)CSc4ccccc4)c([N+](=O)[O-])c3)cc2)CC1
< 0.5 nM | 62 nM | < 1 nM | – | COC1(Cc2ccccc2Cl)CCN(c2ccc(C(=O)NS(=O)(=O)c3ccc(N[C@H](CCN(C)C)CSc4ccccc4)c([N+](=O)[O-])c3)cc2)CC1
< 0.5 nM | 80 nM | 3.2 nM | – | COc1ccccc1CN1CCN(c2ccc(C(=O)NS(=O)(=O)c3ccc(N[C@H](CCN(C)C)CSc4ccccc4)c([N+](=O)[O-])c3)cc2)CC1
4.6 nM | 440 nM | 16 nM | – | COC1(CC(C)(C)C)CCN(c2ccc(C(=O)NS(=O)(=O)c3ccc(N[C@H](CCN(C)C)CSc4ccccc4)c([N+](=O)[O-])c3)cc2)CC1
4.4 nM | – | 35.2 nM | – | CN(C)CC[C@H](CSc1ccccc1)Nc1ccc(S(=O)(=O)NC(=O)c2ccc(N3CCC4(CC3)CC(c3ccccc3)=NO4)cc2)cc1[N+](=O)[O-]
6.1 nM | 360 nM | 56 nM | – | COC1(CC(C)C)CCN(c2ccc(C(=O)NS(=O)(=O)c3ccc(N[C@H](CCN(C)C)CSc4ccccc4)c([N+](=O)[O-])c3)cc2)CC1
1.3 nM | 312 nM | 20 nM | – | CCCCCC1(OC)CCN(c2ccc(C(=O)NS(=O)(=O)c3ccc(N[C@H](CCN(C)C)CSc4ccccc4)c([N+](=O)[O-])c3)cc2)CC1
2.6 nM | 350 nM | 39.8 nM | – | CN(C)CC[C@H](CSc1ccccc1)Nc1ccc(S(=O)(=O)NC(=O)c2ccc(N3CCN(Cc4ccccc4)CC3)cc2)cc1[N+](=O)[O-]
1.1 nM | 75 nM | 1.6 nM | – | COc1ccccc1CC1(OC)CCN(c2ccc(C(=O)NS(=O)(=O)c3ccc(N[C@H](CCN(C)C)CSc4ccccc4)c([N+](=O)[O-])c3)cc2)CC1
0.9 nM | 200 nM | 2.7 nM | – | COC1(Cc2ccc(Cl)cc2)CCN(c2ccc(C(=O)NS(=O)(=O)c3ccc(N[C@H](CCN(C)C)CSc4ccccc4)c([N+](=O)[O-])c3)cc2)CC1
0.6 nM | 760 nM | 2 nM | – | COc1ccccc1C=C1CCN(c2ccc(C(=O)NS(=O)(=O)c3ccc(N[C@H](CCN(C)C)CSc4ccccc4)c([N+](=O)[O-])c3)cc2)CC1
0.9 nM | 79 nM | 3.1 nM | – | COC1(Cc2ccccc2F)CCN(c2ccc(C(=O)NS(=O)(=O)c3ccc(N[C@H](CCN(C)C)CSc4ccccc4)c([N+](=O)[O-])c3)cc2)CC1
